Reference: ChEMBL document CHEMBL1649499, “Nine-hospital study comparing broth microdilution and Etest method results for vancomycin and daptomycin against methicillin-resistant Staphylococcus aureus” (2009)
In brackets after ≈: the same amount, converted by molar mass.

Columns and labels:
Staphylococcus aureus [1] = assay: Antibacterial activity against methicillin-resistant Staphylococcus aureus by broth microdilution method; assay type: functional
Staphylococcus aureus [2] = assay: Antibacterial activity against methicillin-resistant Staphylococcus aureus by Etest method; assay type: functional

Compound	MIC (Staphylococcus aureus [1]) [µg/mL]	MIC (Staphylococcus aureus [2]) [µg/mL]
CN[C@H](CC(C)C)C(=O)N[C@H]1C(=O)N[C@@H](CC(N)=O)C(=O)N[C@H]2C(=O)N[C@H]3C(=O)N[C@H](C(=O)N[C@H](C(=O)O)c4cc(O)cc(O)c4-c4cc3ccc4O)[C@H](O)c3ccc(c(Cl)c3)Oc3cc2cc(c3O[C@@H]2O[C@H](CO)[C@@H](O)[C@H](O)[C@H]2O[C@H]2C[C@](C)(N)[C@H](O)[C@H](C)O2)Oc2ccc(cc2Cl)[C@H]1O [VANCOMYCIN]	> 1	
CCCCCCCCCC(=O)N[C@@H](Cc1c[nH]c2ccccc12)C(=O)N[C@H](CC(N)=O)C(=O)N[C@@H](CC(=O)O)C(=O)N[C@@H]1C(=O)NCC(=O)N[C@@H](CCCN)C(=O)N[C@@H](CC(=O)O)C(=O)N[C@H](C)C(=O)N[C@@H](CC(=O)O)C(=O)NCC(=O)N[C@H](CO)C(=O)N[C@@H]([C@H](C)CC(=O)O)C(=O)N[C@@H](CC(=O)c2ccccc2N)C(=O)O[C@@H]1C	≤ 0.25	0.38 (≈ 0.234 µM)
